Read-outs that look alike come from different tables or passages of the source.
Assays:
[1] = set-up: method as in doi:10.1039/C5MD00508F; conditions: pH 7.4, shake-flask; cited from earlier work
[2] = pH 2, reversed-phase HPLC
Experimental: The octanol-water (buffer) partition coefficient of ^18F-Alakyne and ^18F-Ala-folate was determined using the standard shake-flask method. Relative lipophilicity (k’ values) was determined by HPLC with an isocratic acetonitrile-phosphoric acid buffer eluent system at pH 2.4 as described elsewhere.

folate receptor (FR) = molecular target: T1, folate receptor (FR) (Homo sapiens, UniProt P15328); experiment: Displacement assay using KB cells and [^3H]folic acid; format: binding
T1 construct: endogenous in cells; host or cells: KB cells (human, from the German Collection of Microorganisms and Cell Cultures)
T1 sequence (P15328 25-257): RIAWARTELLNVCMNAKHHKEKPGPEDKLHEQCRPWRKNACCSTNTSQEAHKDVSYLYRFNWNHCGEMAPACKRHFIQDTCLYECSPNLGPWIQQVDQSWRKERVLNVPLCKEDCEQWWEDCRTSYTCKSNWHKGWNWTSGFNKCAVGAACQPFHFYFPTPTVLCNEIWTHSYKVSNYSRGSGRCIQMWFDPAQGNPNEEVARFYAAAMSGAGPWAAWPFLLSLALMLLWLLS

[3] = set-up: method as in PMID 15745749; conditions: pH 2, reversed-phase HPLC; cited from earlier work

O=C(CCOCCOCCOCC[18F])NCCC(=O)N1Cc2ccccc2C#Cc2ccccc21 [^18F-DBCO]
logD7.4 Value [1]: 1.2 ± 0.07 [18]

Nc1nc2ncc(CNc3ccc(C(=O)NC(CCC(=O)NCCOCCOCCOCCn4cc(CNC(CF)C(=O)O)nn4)C(=O)O)cc3)nc2c(=O)[nH]1 (stereo not drawn) [^19F-Ala-folate]
k′ Value [2]: 0.27
Ki (folate receptor (FR); Cheng-Prusoff equation with Kd ([^3H]folic acid) = 1.0 nM): 5.5 ± 0.4 nM
IC50 (folate receptor (FR); KB-cells, [^3H]folic acid): 6.4 ± 0.5 nM
pIC50 (folate receptor (FR); KB-cells, [^3H]folic acid): 8.20 ± 0.05

Nc1nc(=O)c2nc(CNc3ccc(C(=O)N[C@@H](CCC(=O)O)C(=O)O)cc3)cnc2[nH]1 [native folic acid, folic acid]
k′ Value [3]: 0.3 [5]

— article PMC5874726, “Comparison Study of Two Differently Clicked ^18F-Folates—Lipophilicity Plays a Key Role” (Pharmaceuticals, 2018)
